Publication PMC10313671, “Accelerating the prediction and discovery of peptide hydrogels with human-in-the-loop” (Nature Communications, 2023)
Where a SMILES comes first, the peptide text is derived from it.

How the values were obtained:
[1] = Peptide hydrogel formation, vial-inverting method; type: physicochemical; parameters: key to EXP / GELATION: 0: no hydrogel; 1: hydrogel; conditions: for State: ultrasonication, standing 48 h; for Concentration: concentration at which the state was recorded: lowest of 30, 60, 90, 120 mM that gave a gel, 120 mM for non-gelating peptides; for GELATION: 1 = hydrogel, 0 = no hydrogel
Experimental: After validating the efficiency of APHC in predicting tetrapeptide hydrogels, we detailed the phase state of 165 synthesized tetrapeptides and the observed assembly behavior in an aqueous solution.
This work defines hydrogel formation as a self-supporting, non-flowing mixture of water and hydrogelator by the vial-inverting method. All purified tetrapeptides were dissolved in ultrapure water (to form a 30 mM solution initially), followed by the stepwise addition of 1 N NaOH solution to adjust the overall aqueous pH to 6.5–8.5. Meanwhile, a short-term ultrasonication treatment was applied after each pH adjustment to facilitate peptide solubilization and speed up peptide self-assembly. […] The mixture was allowed to stand in for another 48 h for complete hydrogelation. Upon the absence of gelation phenomenon during the aforementioned loops, we increased the peptide concentration (60 mM, 90 mM, and 120 mM were selected) and re-started such gelation operation loop to explore their gelation feasibility.

[2] = Transmission electron microscope (negative staining) of peptide assemblies; conditions: for Morphology: TEM, negative staining with uranyl acetate, 120 kV; for morphology by TEM (in words): aqueous solution or hydrogel, negative staining
Experimental: We used the negative staining technique to observe the morphologies formed by peptides. A micropipette was used to load 10 μL of sample solution to a carbon-coated copper grid, and we used a piece of filter paper to remove the excess solution. After rinsing the grid with the deionized water, we used uranyl acetate to stain the sample for 1 minute and then rinsed the grid with deionized water again.

[3] = 120 mM peptide (highest tested) in ultrapure water, pH 6.5-8.5 (1 N NaOH), vial-inverting method, precipitate, sol, suspension = no gel
[4] = peptide concentration 120 mM, vial-inverting method
[5] = 30 mM peptide in ultrapure water, pH adjusted to 6.5-8.5 with 1 N NaOH, vial-inverting method, concentration raised 30/60/90/120 mM until gelation
[6] = peptide concentration 30 mM, vial-inverting method
[7] = 60 mM peptide in ultrapure water, pH 6.5-8.5 (1 N NaOH), vial-inverting method, no gel at 30 mM
[8] = peptide concentration 60 mM, vial-inverting method

SMILES | State [1, 3] | Concentration [1] | GELATION [1, 4] | Morphology ([2]; line of the table gives 120 mM) | further results
C[C@H](N)C(=O)N[C@@H](C)C(=O)N[C@@H](C)C(=O)N[C@@H](C)C(=O)O [AAAA] (H-AAAA-OH) | sol | 120000 µM | 0 | blank | 
CC[C@H](C)[C@H](NC(=O)[C@@H](NC(=O)[C@H](C)N)C(C)C)C(=O)N[C@@H](CCC(N)=O)C(=O)O [AVIQ] (H-AVIQ-OH) | suspension | 120000 µM | 0 | aggregates | 
C[C@H](NC(=O)[C@@H](N)CS)C(=O)N[C@@H](Cc1ccc(O)cc1)C(=O)N[C@@H](Cc1c[nH]c2ccccc12)C(=O)O [CAYW] (H-CAYW-OH) | precipitate | 120000 µM | 0 | aggregates | 
CC(C)C[C@H](NC(=O)[C@H](Cc1ccccc1)NC(=O)[C@@H](N)CS)C(=O)N[C@@H](Cc1c[nH]c2ccccc12)C(=O)O [CFLW] (H-CFLW-OH) | suspension | 120000 µM | 0 | aggregates | 
N[C@@H](CS)C(=O)N[C@@H](Cc1c[nH]cn1)C(=O)N[C@@H](Cc1ccccc1)C(=O)N[C@@H](Cc1c[nH]c2ccccc12)C(=O)O [CHFW] (H-CHFW-OH) |  | 30000 µM |  |  | State [1, 5]: gel; GELATION [1, 6]: 1; Morphology ([2]; line of the table gives 30 mM): sphere
CC[C@H](C)[C@H](NC(=O)[C@@H](N)CS)C(=O)N[C@@H](Cc1ccc(O)cc1)C(=O)N[C@@H](Cc1ccccc1)C(=O)O [CIYF] (H-CIYF-OH) |  | 60000 µM |  |  | State [1, 7]: gel; GELATION [1, 8]: 1; Morphology ([2]; line of the table gives 60 mM): fibre
C[C@@H](O)[C@H](NC(=O)[C@@H](N)CS)C(=O)N[C@@H](Cc1ccc(O)cc1)C(=O)N[C@@H](Cc1ccccc1)C(=O)O [CTYF] (H-CTYF-OH) |  | 30000 µM |  |  | State [1, 5]: gel; GELATION [1, 6]: 1; Morphology ([2]; line of the table gives 30 mM): fibre
N[C@@H](CS)C(=O)N[C@@H](Cc1c[nH]c2ccccc12)C(=O)N[C@@H](Cc1ccccc1)C(=O)N[C@@H](CO)C(=O)O [CWFS] (H-CWFS-OH) |  | 30000 µM |  |  | State [1, 5]: gel; GELATION [1, 6]: 1; Morphology ([2]; line of the table gives 30 mM): fibre
C[C@@H](O)[C@H](NC(=O)[C@H](Cc1ccccc1)NC(=O)[C@H](Cc1c[nH]c2ccccc12)NC(=O)[C@@H](N)CS)C(=O)O [CWFT] (H-CWFT-OH) | suspension | 120000 µM | 0 | aggregates | 
N[C@@H](CS)C(=O)N[C@@H](Cc1c[nH]c2ccccc12)C(=O)N[C@@H](Cc1c[nH]cn1)C(=O)N[C@@H](Cc1ccc(O)cc1)C(=O)O [CWHY] (H-CWHY-OH) | gel | 120000 µM | 1 | aggregates | 
CC(C)C[C@H](NC(=O)[C@H](C)NC(=O)[C@@H](N)CC(=O)O)C(=O)N[C@H](C(=O)O)C(C)C [DALV] (H-DALV-OH) | suspension | 120000 µM | 0 | aggregates | 
N[C@@H](CC(=O)O)C(=O)N[C@@H](CC(=O)O)C(=O)N[C@@H](CC(=O)O)C(=O)N[C@@H](CC(=O)O)C(=O)O [DDDD] (H-DDDD-OH) | sol | 120000 µM | 0 | sphere | 
CC(C)[C@H](NC(=O)[C@@H](N)CC(=O)O)C(=O)N[C@@H](Cc1ccccc1)C(=O)N[C@@H](Cc1c[nH]c2ccccc12)C(=O)O [DVFW] (H-DVFW-OH) |  | 30000 µM |  |  | State [1, 5]: gel; GELATION [1, 6]: 1; Morphology ([2]; line of the table gives 30 mM): fibre
NCCCC[C@H](NC(=O)[C@H](CCCCN)NC(=O)[C@H](CCC(=O)O)NC(=O)[C@@H](N)CCC(=O)O)C(=O)O [EEKK] (H-EEKK-OH) | sol | 120000 µM | 0 | blank | 
NCCCC[C@H](NC(=O)[C@H](Cc1ccccc1)NC(=O)[C@H](Cc1ccccc1)NC(=O)[C@@H](N)CCC(=O)O)C(=O)O [EFFK] (H-EFFK-OH) | sol | 120000 µM | 0 | aggregates | 
C[C@H](NC(=O)[C@@H](N)Cc1ccccc1)C(=O)N[C@@H](Cc1ccccc1)C(=O)N1CCC[C@H]1C(=O)O [FAFP] (H-FAFP-OH) | suspension | 120000 µM | 0 | particle | 

SMILES | State [1, 3] | Concentration [1] | GELATION [1, 4] | Morphology ([2]; line of the table gives 120 mM) | further results
N[C@@H](Cc1ccccc1)C(=O)N[C@@H](CS)C(=O)N[C@@H](Cc1c[nH]c2ccccc12)C(=O)N[C@@H](Cc1c[nH]c2ccccc12)C(=O)O [FCWW] (H-FCWW-OH) | gel | 120000 µM | 1 | aggregates | 
N[C@@H](Cc1ccccc1)C(=O)N[C@@H](Cc1ccccc1)C(=O)N[C@@H](Cc1ccccc1)C(=O)N[C@@H](Cc1ccccc1)C(=O)O [FFFF] (H-FFFF-OH) |  | 30000 µM |  |  | State [1, 5]: gel; GELATION [1, 6]: 1; Morphology ([2]; line of the table gives 30 mM): sheet
N[C@@H](Cc1ccccc1)C(=O)N[C@@H](Cc1ccccc1)C(=O)N[C@@H](Cc1ccc(O)cc1)C(=O)N[C@@H](Cc1ccc(O)cc1)C(=O)O [FFYY] (H-FFYY-OH) |  | 30000 µM |  |  | State [1, 5]: gel; GELATION [1, 6]: 1; Morphology ([2]; line of the table gives 30 mM): needle
N[C@@H](Cc1ccccc1)C(=O)NCC(=O)N[C@@H](Cc1c[nH]c2ccccc12)C(=O)N[C@@H](Cc1c[nH]c2ccccc12)C(=O)O [FGWW] (H-FGWW-OH) | precipitate | 120000 µM | 0 | sphere | morphology by TEM (in words) [2]: aggregates with different sizes
CC(C)C[C@H](NC(=O)[C@H](Cc1c[nH]cn1)NC(=O)[C@@H](N)Cc1ccccc1)C(=O)N[C@@H](Cc1ccccc1)C(=O)O [FHLF] (H-FHLF-OH) |  | 30000 µM |  |  | State [1, 5]: gel; GELATION [1, 6]: 1; Morphology ([2]; line of the table gives 30 mM): sheet
NCCCC[C@H](NC(=O)[C@@H](N)Cc1ccccc1)C(=O)N[C@@H](Cc1ccccc1)C(=O)N[C@@H](Cc1ccccc1)C(=O)O [FKFF] (H-FKFF-OH) |  | 60000 µM |  |  | State [1, 7]: gel; GELATION [1, 8]: 1; Morphology ([2]; line of the table gives 60 mM): sheet
NCCCC[C@H](NC(=O)[C@@H](N)Cc1ccccc1)C(=O)N[C@@H](Cc1ccccc1)C(=O)N[C@@H](Cc1c[nH]c2ccccc12)C(=O)O [FKFW] (H-FKFW-OH) |  | 60000 µM |  |  | State [1, 7]: gel; GELATION [1, 8]: 1; Morphology ([2]; line of the table gives 60 mM): fibre
CSCC[C@H](NC(=O)[C@@H](N)Cc1ccccc1)C(=O)N[C@@H](CC(C)C)C(=O)N[C@@H](Cc1ccccc1)C(=O)O [FMLF] (H-FMLF-OH) |  | 30000 µM |  |  | State [1, 5]: gel; GELATION [1, 6]: 1; Morphology ([2]; line of the table gives 30 mM): sheet
CSCC[C@H](NC(=O)[C@@H](N)Cc1ccccc1)C(=O)N[C@@H](Cc1ccc(O)cc1)C(=O)N[C@@H](CO)C(=O)O [FMYS] (H-FMYS-OH) | sol | 120000 µM | 0 | aggregates | 
CC(C)[C@H](NC(=O)[C@H](Cc1ccc(O)cc1)NC(=O)[C@H](CO)NC(=O)[C@@H](N)Cc1ccccc1)C(=O)O [FSYV] (H-FSYV-OH) |  | 60000 µM |  |  | State [1, 7]: gel; GELATION [1, 8]: 1; Morphology ([2]; line of the table gives 60 mM): aggregates
CC[C@H](C)[C@H](NC(=O)[C@@H](NC(=O)[C@@H](N)Cc1ccccc1)C(C)C)C(=O)N[C@@H](Cc1ccc(O)cc1)C(=O)O [FVIY] (H-FVIY-OH) |  | 30000 µM |  |  | State [1, 5]: gel; GELATION [1, 6]: 1; hydrogel formation (in words) ([1]; vial-inverting method, representative hydrogels pH between 7.0 to 7.5): hydrogels; morphology by TEM (in words) [2]: entangled nanofibers
CC(C)C[C@H](NC(=O)[C@@H](NC(=O)[C@H](Cc1ccccc1)NC(=O)[C@@H](N)CCCCN)C(C)C)C(=O)O [KFVL] (H-KFVL-OH) |  |  | 0 |  | 
CC(C)C[C@H](NC(=O)[C@@H](NC(=O)[C@H](Cc1ccccc1)NC(=O)[C@@H](N)CCCCN)C(C)C)C(=O)O [LYS-PHE-VAL-LEU] (H-KFVL-OH) |  |  |  |  | EXP ([1]; experimental gelation result of the synthesized peptide): 0
C[C@@H](O)[C@H](N)C(=O)N[C@@H](CCC(N)=O)C(=O)N[C@@H](Cc1ccccc1)C(=O)N[C@@H](CO)C(=O)O [TQFS] (H-TQFS-OH) |  |  | 0 |  | 
CC(C)[C@H](N)C(=O)N[C@@H](Cc1ccccc1)C(=O)NCC(=O)N[C@H](C(=O)O)C(C)C [VFGV] (H-VFGV-OH) | sol | 120000 µM | 0 |  | 
